Reference: patent publication US20240246954A1, “COMPOSITIONS AND METHODS FOR INHIBITING KRAS” (TheRas, Inc., priority 2021, published 2024)
Read-outs that look alike come from different tables or passages of the source.

Columns and labels:
[1] = target: T1, Avi-KRAS G12D (1-169) GppNHp/RAF1 RBD-3×FLAG (52-151) (Homo sapiens, UniProt P01116, G12D); assay: HTRF Raf1-KRAS G12D-GppNHp disruption assay; assay type: biochemical; settings: 1 h incubation
T1 construct: Avi-KRAS G12D (1-169) GppNHp
Outline: (§1)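 Compounds titrated from 100 μM in a 10-point series, incubated with protein mix 1 h at room temperature, then HTRF reagents a further 1 h. Time-resolved fluorescence read (excitation 320 nm, emission 615 nm); activity expressed as percentage of DMSO control.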

[2] = target: T2, Avi-KRAS G12D/Q25A (1-169) GppNHp/3×FLAG-PI3KCA (157-299) (Homo sapiens, UniProt P01116, G12D/Q25A); assay: HTRF PI3KCA-KRAS G12D/Q25A-GppNHp disruption assay; assay type: biochemical; settings: 1 h incubation
T2 construct: Avi-KRAS G12D/Q25A (1-169) GppNHp
Outline: as §1

[3] = tested on: pERK in GP2d cells (KRAS G12D); assay: Cell-based pERK HTRF assay; settings: 60 min incubation
Description: Biological Example 3. Cell-Based pERK HTRF Assay
pERK assay (Perkin Elmer) was used to determine the effectiveness of compounds in disrupting KRAS G12D protein/effector signaling in cells.
On Day 1, cells (GP2d) were seeded into 96-well plates at 3×10^4 cells/well in 80 μl complete growth media (DMEM, 10% FBS).
On Day 2, cells were treated with compounds at 0.25% DMSO. The source plate was created with compounds diluted in media at 5-fold the final assay concentration. The compounds were run in a 9-point concentration curve starting at 1 μM, with a half-log dilution between concentrations. 20 μL was transferred onto the cell plates (final volume in wells was 100 μL). Plates were harvested after 60 min incubation by aspirating media and adding kit-supplied 1× supplemented lysis buffer to all wells (50 μl per well). Plates were then placed on a plate shaker and incubated at 850 rpm for an additional 30 min.
Antibody mixture solution is prepared by diluting aliquoted d2 and Eu Cryptate antibodies 1:20 in kit supplied detection buffer, mix the diluted antibodies solutions (1:1 v:v). Four μL of this solution is then added to a 384-well detection plate (Perkin Elmer; 6008230).
Samples were homogenized by pipetting up and down and then transferred (16 μL of cell lysates) from the 96-well cell culture plate to two wells of the HTRF 384-well detection plate containing the antibody solution. Plates were centrifuged (524 g for 1 min) and allowed to incubate between 4 and 24 h at room temperature. Maximum signal is reached after 4 h incubation time and remains stable over a period of 24 hours. Therefore, readings can be made between 4 and 24 h of incubation. Plates were centrifuged again (524 g for 1 min), then analyzed on the EnVision plate reader using the following settings: Excitation 320 nm, Bandwidth 75 nm; Emission 615 nm, Bandwidth 85 nm; Gain 100%; Flashes 100; Lag 60 μs.

T1 sequence (P01116 1-169 isoform P01116-2 G12D limits assumed): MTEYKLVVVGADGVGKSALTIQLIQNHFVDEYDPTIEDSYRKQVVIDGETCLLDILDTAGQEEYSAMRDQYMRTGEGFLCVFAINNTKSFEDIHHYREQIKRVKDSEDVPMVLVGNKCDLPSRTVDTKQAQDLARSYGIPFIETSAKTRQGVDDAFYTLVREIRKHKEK
T2 sequence (P01116 1-169 isoform P01116-2 G12D/Q25A limits assumed): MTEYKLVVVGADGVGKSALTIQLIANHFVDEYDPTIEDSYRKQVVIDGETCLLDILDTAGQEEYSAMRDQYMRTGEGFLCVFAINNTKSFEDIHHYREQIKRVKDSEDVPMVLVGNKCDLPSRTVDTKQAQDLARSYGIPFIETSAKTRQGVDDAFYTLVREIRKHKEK

IC50 [1] [nM] | IC50 [2] [nM] | IC50 ([3]; GP2d, 1 h) [nM] | Structure (SMILES) | IC50 ([3]; read-out: pERK-Gp2D-1hr) [nM]
1000 to 10000 | 1000 to 10000 | > 1000 | Nc1nc2c(-c3c(C(F)(F)F)cc4c(N[C@@H]5CCC6(CNC6)C5)nc(OCC56CCCN5CCC6)nc4c3F)ccc(F)c2s1 [Compound 334] | –
100 to 1000 | 1000 to 10000 | > 1000 | Nc1nc2c(-c3c(C(F)(F)F)cc4c(NC5CNC5)nc(OCC56CCCN5CCC6)nc4c3F)ccc(F)c2o1 [Compound 199] | –
≤ 100 | 100 to 1000 | ≤ 100 | CN(c1nc(OC[C@@]23CCCN2C[C@H](F)C3)nc2c(F)c(-c3ccc(F)c4sc(N)c(C#N)c34)c(C(F)(F)F)cc12)[C@@H]1CCN[C@@H]1CF [Compound 364] | –
100 to 1000 | 100 to 1000 | ≤ 100 | CN(c1nc(OC[C@@]23CCCN2C[C@H](F)C3)nc2cc(-c3ccc(F)c4sc(N)c(C#N)c34)c(C(F)(F)F)cc12)[C@H]1CNC[C@H]1F [Compound 347] | –
100 to 1000 | 1000 to 10000 | 100 to 1000 | CN(c1nc(OC[C@@]23CCCN2C[C@H](F)C3)nc2c(F)c(-c3ccc(F)c4sc(N)nc34)c(C(F)(F)F)cc12)C1CCNC1 (stereo in doubt) [Compound 322, 7-fluoro-4-(8-fluoro-2-(((2R,7aS)-2-fluorotetrahydro-1H-pyrrolizin-7a(5H)-yl)methoxy)-4-(methyl((R)-pyrrolidin-3-yl)amino)-6-(trifluoromethyl)quinazolin-7-yl)benzo[d]thiazol-2-amine] | –
100 to 1000 | 1000 to 10000 | 100 to 1000 | CN(c1nc(OC[C@@]23CCCN2C[C@H](F)C3)nc2c(Cl)c(-c3ccc(F)c4sc(N)nc34)c(C(F)(F)F)cc12)[C@@H]1CCNC1 [Compound 314] | –
100 to 1000 | 100 to 1000 | 100 to 1000 | CN(c1nc(OC[C@@]23CCCN2C[C@H](F)C3)nc2c(F)c(-c3ccc(F)c4sc(N)c(C#N)c34)c(C#N)cc12)[C@@H]1CCNC1 [Compound 345, 7-(2-amino-3-cyano-7-fluorobenzo[b]thiophen-4-yl)-8-fluoro-2-(((2R,7aS)-2-fluorotetrahydro-1H-pyrrolizin-7a(5H)-yl)methoxy)-4-(methyl((R)-pyrrolidin-3-yl)amino)quinazoline-6-carbonitrile] | –
100 to 1000 | 1000 to 10000 | 100 to 1000 | C[C@@H]1C[C@@H](N(C)c2nc(OC[C@@]34CCCN3C[C@H](F)C4)nc3cc(-c4ccc(F)c5sc(N)nc45)c(C(F)(F)F)cc23)CN1 [Compound 336] | –
1000 to 10000 | 1000 to 10000 | > 1000 | Nc1nc2c(-c3c(C(F)(F)F)cc4c(N5CC[C@@H]6NCC[C@@H]65)nc(OCC56CCCN5CCC6)nc4c3F)ccc(F)c2s1 [Compound 333] | –
1000 to 10000 | 1000 to 10000 | 100 to 1000 | C[C@@H]1C[C@@H](N(C)c2nc(OC[C@@]34CCCN3C[C@H](F)C4)nc3c(F)c(-c4ccc(F)c5sc(N)c(C#N)c45)ccc23)CN1 [Compound 357] | –
1000 to 10000 | 1000 to 10000 | 100 to 1000 | C[C@H]1CNC[C@@H]1N(C)c1nc(OC[C@@]23CCCN2C[C@H](F)C3)nc2c(F)c(-c3ccc(F)c4sc(N)nc34)c(C(F)(F)F)cc12 [Compound 309] | –
100 to 1000 | 1000 to 10000 | > 1000 | NCC(=O)N1CCN(c2nc(OCC34CCCN3CCC4)nc3c(F)c(-c4ccc(F)c5sc(N)nc45)c(C(F)(F)F)cc23)CC1 [Compound 127] | –
100 to 1000 | 100 to 1000 | ≤ 100 | Nc1nc2c(-c3c(C(F)(F)F)cc4c(N5CC6CC5CN6)nc(OC[C@@]56CCCN5C[C@H](F)C6)nc4c3F)ccc(F)c2s1 (stereo partly drawn) [Compound 226] | –
100 to 1000 | 10000 to 30000 | ≤ 100 | C[C@H]1C[C@@H](N(C)c2nc(OC[C@@]34CCCN3C[C@H](F)C4)nc3c(F)c(-c4ccc(F)c5sc(N)nc45)c(C(F)(F)F)cc23)CN1 [Compound 311] | –
1000 to 10000 | 10000 to 30000 | > 1000 | Nc1nc2c(-c3cc4nc(OC[C@@]56CCCN5C[C@H](F)C6)nc(O[C@H]5CNC[C@@H]5F)c4cc3C(F)(F)F)ccc(F)c2s1 [Compound 374] | –

Structure (SMILES) | IC50 [1] [nM] | IC50 [2] [nM] | IC50 ([3]; GP2d, 1 h) [nM] | IC50 ([3]; read-out: pERK-Gp2D-1hr) [nM]
N#Cc1cc2c(N3CC4CCC(C3)N4)nc(OC[C@@]34CCCN3C[C@H](F)C4)nc2c(Cl)c1-c1ccc(F)c2sc(N)c(C#N)c12 [Compound 372] | 1000 to 10000 | 1000 to 10000 | 100 to 1000 | –
N#Cc1c(N)sc2c(F)ccc(-c3c(OC(F)(F)F)cc4c(N5CC6CCC(C5)N6)nc(OC[C@@]56CCCN5C[C@H](F)C6)nc4c3F)c12 [Compound 320] | 100 to 1000 | 100 to 1000 | ≤ 100 | –
Nc1nc2c(-c3cc4nc(OC[C@@]56CCCN5C[C@H](F)C6)nc(N5CC6CCC(C5)N6)c4cc3C(F)(F)F)ccc(F)c2s1 [Compound 313] | 100 to 1000 | 1000 to 10000 | ≤ 100 | –
Nc1nc2c(-c3c(C(F)(F)F)cc4c(N5CC6CCC(C5)N6CC5CC5)nc(OC[C@@]56CCCN5C[C@H](F)C6)nc4c3F)ccc(F)c2s1 [Compound 324] | 1000 to 10000 | 1000 to 10000 | 100 to 1000 | –
N#Cc1c(N)sc2c(F)ccc(-c3ccc4c(N5CC6CCC(C5)N6)nc(OC[C@@]56CCCN5C[C@H](F)C6)nc4c3F)c12 [Compound 358] | 100 to 1000 | 1000 to 10000 | ≤ 100 | –
Nc1nc2c(-c3c(C(F)(F)F)cc4c(N5CC6CCC(C5)N6)nc(OCC5(CN6CC[C@@H](F)C6)CC5)nc4c3F)ccc(F)c2s1 [Compound 252] | 100 to 1000 | 100 to 1000 | ≤ 100 | –
Nc1nc2c(-c3cc4nc(OC[C@@]56CCCN5C[C@H](F)C6)nc(N5CC6CCC(C5)N6)c4cc3C(F)(F)F)c(F)cc(F)c2s1 [Compound 319] | 100 to 1000 | 100 to 1000 | ≤ 100 | –
N#Cc1c(N)sc2c(F)ccc(-c3c(C(F)(F)F)cc4c(N5CC6CCC(C5)N6)nc(OCC5(CN6CCOCC6)CC5)nc4c3F)c12 [Compound 337] | ≤ 100 | 100 to 1000 | ≤ 100 | –
Nc1nc2c(-c3c(C(F)(F)F)cc4c(N5C[C@H]6CC[C@@H](C5)N6)nc(OC[C@@]56CCCN5C[C@H](F)C6)nc4c3Cl)ccc(F)c2s1 [Compound 256, 4-(4-((1R,5S)-3,8-diazabicyclo[3.2.1]octan-3-yl)-8-chloro-2-(((2R,7aS)-2-fluorotetrahydro-1H-pyrrolizin-7a(5H)-yl)methoxy)-6-(trifluoromethyl)quinazolin-7-yl)-7-fluorobenzo[d]thiazol-2-amine] | 100 to 1000 | 100 to 1000 | ≤ 100 | –
Nc1nc2c(-c3c(C(F)(F)F)cc4c(N5CC6CCC(C5)N6)nc(OC[C@@]56CCCN5C[C@H](F)C6)nc4c3F)ccc(F)c2o1 [Compound 220, 4-(4-(3,8-diazabicyclo[3.2.1]octan-3-yl)-8-fluoro-2-(((2R,7aS)-2-fluorotetrahydro-1H-pyrrolizin-7a(5H)-yl)methoxy)-6-(trifluoromethyl)quinazolin-7-yl)-7-fluorobenzo[d]oxazol-2-amine] | 100 to 1000 | 100 to 1000 | ≤ 100 | –
N#Cc1c(N)sc2c(F)ccc(-c3c(C(F)(F)F)cc4c(N5CC6CCC(C5)N6)nc(OC[C@@]56CCCN5C[C@H](F)C6)nc4c3F)c12 (single isomer, unassigned) [Compound 367] | 1000 to 10000 | 1000 to 10000 | – | 100 to 1000
CCN1[C@@H]2CC[C@H]1CN(c1nc(OC[C@@]34CCCN3C[C@H](F)C4)nc3c(F)c(-c4ccc(F)c5sc(N)nc45)c(C(F)(F)F)cc13)C2 [Compound 315, 4-(4-((1R,5S)-8-ethyl-3,8-diazabicyclo[3.2.1]octan-3-yl)-8-fluoro-2-(((2R,7aS)-2-fluorotetrahydro-1H-pyrrolizin-7a(5H)-yl)methoxy)-6-(trifluoromethyl)quinazolin-7-yl)-7-fluorobenzo[d]thiazol-2-amine] | 1000 to 10000 | 10000 to 30000 | 100 to 1000 | –
Nc1nc2c(-c3c(C(F)F)cc4c(N5C[C@H]6CC[C@@H](C5)N6)nc(OC[C@@]56CCCN5C[C@H](F)C6)nc4c3F)ccc(F)c2s1 [Compound 370, 4-(4-((1R,5S)-3,8-diazabicyclo[3.2.1]octan-3-yl)-6-(difluoromethyl)-8-fluoro-2-(((2R,7aS)-2-fluorotetrahydro-1H-pyrrolizin-7a(5H)-yl)methoxy)quinazolin-7-yl)-7-fluorobenzo[d]thiazol-2-amine] | 100 to 1000 | 100 to 1000 | ≤ 100 | –
